The subject of series [1] is L3.6pl human pancreatic cancer cells. Nature of the series: Cytotoxicity dose-response (MTS) in L3.6pl cells. The format is cell-based. The note with it: L3.6pl cells, previously determined; read-out: 72 h IC50. The procedure: L3.6pl Studies. Compounds 9 and 10 were evaluated in the metastatic human pancreatic cancer cell line, L3.6pl. L3.6pl has a K-ras mutation, and high polyamine uptake activity.^7 A dose-response curve was obtained for each compound in L3.6pl cells to determine the 72 h L3.6pl IC50 value, described as the dose at which L3.6pl cells were 50% viable compared to the untreated control.
Regarding the biological studies performed in the following examples, it is noted that CHO K1, CHO-MG, and L3.6pl cells were grown in RPMI 1640 medium supplemented with 10% fetal bovine serum (FBS) and 1% penicillin/streptomycin. All cells were grown at 37° C. under a humidified 5% CO2 atmosphere. Aminoguanidine (1 mM used for CHO K1 and CHOMG cells and 250 μM for L3.6pl) was added to the growth medium to prevent oxidation of the compounds of the bovine serum amine oxidase enzyme that is present in calf serum. The cells used were in early to mid log phase and CHO and CHOMG were plated out at 1000 cells/well, whereas the L3.6pl cells were plated at 500 cells/well in a 96 well plate format.
This example illustrates aspects according to various embodiments pertaining to IC50 determinations and cell viability studies. Cell growth was assayed in sterile 96-well microtiter plates (Costar 3599, Corning, N.Y.). CHO K1 or CHOMG cells were plated at 1,000 cells/70 μL and L3.6pl cells at 500 cells/70 μL. The drug solutions of appropriate concentration in phosphate buffered saline (PBS) were added 10 μL per well after overnight incubation. After drug exposure (e.g., for 48 h for CHO K1 and CHO-MG and 48 h or 72 h for L3.6pl), cell growth was determined by measuring formazan formation from the 3-(4,5dimethylthiazol-2-yl)-5-(3-carboxymethoxyphenyl)-2-(4-sulfenyl)-2H tetrazolium, inner salt (MTS) using SynergyMx Biotek microplate reader for absorbance (490 nm) measurements.^27 All experiments were run in triplicate.

Series [2] concerns polyamine transport system (PTS). The note with it: CHO vs CHO-MG (ref 17); cited from earlier work.
Series [3] deals with L3.6pl cells. Briefly: Intracellular polyamine and Ant-44 levels (N-dansylation, HPLC) in L3.6pl cells. The class given is cell-based, human. The note with it: Ant-44 only control (2 μM), 72 h. The protocol:
One explanation for the enhanced potency was that compound 10 (1666.255) increased polyamine import and, as a result, may have increased intracellular Ant-44 levels. To test this hypothesis, L3.6pl cells were dosed with a fixed concentration of Ant-44 (2 μM) alone and in combination with increasing concentrations of compound 10 (1666.255) to explore how this combination therapy affected intracellular polyamine pools and Ant-44 import.
FIG. 7 is an example according to various embodiments, illustrating both single and combination therapies in L3.6pl cells with Ant-44 and compound 10 (1666.255) after 72 h incubation. Polyamine and Ant-44 levels (expressed as nmoles/mg protein) and relative % viability versus an untreated control were observed after 72 h incubation at 37° C. The untreated control was run in parallel and polyamine levels determined in duplicate and % cell viability in triplicate. Ant-44 was dosed at a fixed concentration of 2 μM and compound 10 (1666.255) at increasing concentrations. Cell viability tracked well with total intracellular polyamine levels (sum of putrescine, spermidine and spermine).
It was concluded that compound 10 was neither acting as a PTI nor as a polyamine import agonist. How then could it lead to intracellular polyamine depletion? […] To test this hypothesis, L3.6pl cells were dosed with increasing concentrations of compound 10 (1666.255) without Ant44. If compound 10 (1666.255) was acting on polyamine pools, one should see a reduction in total polyamine levels as well as decreased cell viability in a dose dependent manner upon increasing levels of 10. Therefore, the toxicity of compound 10 and intracellular polyamine levels after 72 h exposure to 10 were measured (FIG. 8).
FIG. 8 is an example according to various embodiments, illustrating intracellular polyamine levels (expressed as nmoles polyamine/mg protein) in L3.6pl cells dosed with increasing concentrations of compound 10 (1666.255) after cells were incubated for 72 h at 37° C. The untreated control was run in parallel and polyamine levels determined in duplicate via N-dansylation and HPLC. The data was averaged and reported as nmol polyamine (PA)/mg protein.
This example illustrates aspects according to various embodiments pertaining to a 72 h experiment with Compound 10 in L3.6pl cells. Ten milliliters of a cell suspension containing L3.6pl human pancreatic cancer cells (50,000 cells/mL) and aminoguanidine (1 mM) were placed in treated plastic Petri dishes (d=9 cm) and incubated overnight at 37° C. After 24 h, the cells were dosed with compound 10 at 2 μM, 5 μM, or 7 μM. (Note: Stock solutions of 10 at 2, 5, and 7 mM were dissolved in phosphate buffered saline (PBS) and were filtered through a 0.2 μm filter prior to use. The experiments were maintained with a total volume of 10.01 mL where 10 mL of the cell suspension was placed in a plastic dish and each compound or the equivalent PBS volume was added to make up the total volume 10.01 mL for each dish. For example, for the control experiment PBS (10 μL) was added to make up the total volume (10 mL+10 μL=10.01 mL). After 72 h incubation, the cells were collected first by pipetting off the supernatant containing floating dead cells from the culture dish as well as media and placing them into 15 mL tubes. The supernatant containing floating cells was centrifuged (4 min at 1,000 rpm). The cell-free supernatant (supernatant #1) was collected into a new 15 mL tube and quantified (˜8.6 mL) and was then stored frozen and was later quantified by LCMS to investigate the media composition of particular polyamine and amino acid analytes. The attached cells on the dish were washed with PBS (5 mL). The PBS wash was removed by suction and additional PBS (2 mL) was added and again suctioned off to provide twice-washed cells still adhered to the dish. Trypsin (2 mL) was then added to each dish and incubated (3-5 min) until all the cells were detached. Fresh media (8 mL) was added to quench the trypsin. […]

Series [4] has as its system L3.6pl human pancreatic cancer cells. To be noted: L3.6pl cells, CDAP 100 μM (ref 10); cited from earlier work.
In series [5] the test system is L3.6pl cells. To be noted: CDAP 100 μM (ref 10); cited from earlier work.

The structures appear in SMILES notation.

Take `Cl.NCCCCNCCCCNCc1c2ccccc2cc2ccccc12` [Ant-44, reference compound]: in series [1], the IC50 was found to be 4 µM. The “preference for CHO cell line over CHO-MG (IC50 comparison)” value in series [2] was about 150 fold. In addition, in series [3], the “intracellular level of Ant-44” value is given as 2.15±0.10 nmol Ant44/mg protein.

In the case of `NCCCNC1CCCCC1` [CDAP, N-(3-aminopropyl)-cyclohexylamine], in series [4], the viability was 100%. Moreover, in series [5], the Intracellular Spermine entry was “no detectable spermine”.

By IC50 is commonly meant the concentration that inhibits the measured activity by half. Broadly, the viability is a read-out of living cells in per cent, often relative to untreated cells.

(Values after patent US20210317090A1, “AMINO ACID DEPLETION AGENTS AS ANTIPROLIFERATIVE AGENTS” (University of Central Florida Research Foundation, Inc., priority 2018, published 2021).)
